2 compounds from patent US12577201B2, “Glutamine analogs” (Jacobio Pharmaceuticals Co., Ltd., priority 2020, dated 2026) can be followed below.

Series [1] can be described thus: Plasma stability, swine plasma. The note with it: 1 μM, 37° C., 4 hours. The procedure:
(§1) For metabolic stability, plasma from dog, monkey, swine and human were used. For stability, prodrugs (1 μM) were spiked in respective solutions and incubated in an orbital shaker at 37° C. 50 μL aliquots of the mixture in duplicate were removed, and the reaction quenched by addition of four times the volume of ice cold acetonitrile spiked with the internal standard (Dexamethasone 100 ng/mL). […] 100 μL of the supernatant was diluted with 100 μL of water and transferred to the 0.6 mL plastic tubes on 96-well plate. Prodrug disappearance was monitored over time using a liquid chromatography and tandem mass spectrometry (LC-MS/MS).
(§2) For LC-MS/MS, prodrugs were analyzed on a ExionLC AD HPLC system coupled to REF Triple Quad 5500+ mass spectrometer with an ESI interface on an Phenomenex Kinetex 5 m C18 100A (2.1*50) mm UPLC column. The autosampler was temperature controlled and was operated at 4° C. The mobile phase used for the chromatographic separation was composed of acetonitrile/water containing 0.10% formic acid and will run at a flow rate of 0.6 mL/min for 3.5 min using gradient elution. The column effluent was monitored using […], equipped with an electrospray probe set in the positive ionization mode. Samples were introduced into the ionization source through a heated nebulized probe (400° C.). Disappearance of prodrugs will be measured from ratio of peak areas of analyte to IS.
(§3) For quantification of compound remaining, disappearance of prodrugs was measured from ratio of peak areas of analyte to IS.

For a further series, the system named is MC38 tumor cells. Description: Anti-tumor efficacy in MC38 model in C57BL/6 mouse (Example 11). In kind it is in vivo. The note with it: C57BL/6, MC38, 2 μmol/kg S.C. QD; for T/C (%) / TGI (%) / TV (mm^3) (Mean ± SEM) D6 / TV (mm^3) (Mean ± SEM) D10 / TV (mm^3) (Mean ± SEM) D13 / TV (mm^3) (Mean ± SEM) D17 / TV (mm^3) (Mean ± SEM) D20: Example 11; for TV (mm^3) at D21 (Mean ± SEM): Table 13. The method, then: Animal species: Mus musculus; Strain: C57BL/6; Age: 6-8 weeks; Sex: female. The MC38 tumor cells were maintained in vitro in DMEM medium supplemented with 10% FBS at 37° C., 5% CO2. The cells growing in an exponential growth phase were harvested and counted for tumor inoculation. The culture MC38 were harvested, re-suspended in PBS containing 50% Matrigel at a density of 1×10^7 cells/mL. Each mouse was inoculated subcutaneously in the right flank region with 1×10^6 cells in 0.1 mL of PBS containing 50% Matrigel for tumor development.
The treatments were started when the mean tumor size reached 82-129 mm^3 (average tumor size 102 mm^3). Each group contained 6 tumor bearing mice. Group 1 was treated with Vehicle (10% DMSO+90% Saline), S.C., QD.
(§4) In vivo efficacy was examined according to absolute tumor growth inhibition (TGI) and the safety was evaluated according to weight change and survival in mice.
Statistical analysis of difference in tumor volume among the groups was performed using one-way ANOVA followed by individual comparisons using Games-Howell post-hoc test (equal variance not assumed). All data was analyzed using SPSS 22.0 software.

The nature of series [2]: Stability in liver microsomes, monkey. The class given is in vitro ADME. The note with it: 60 minutes, read-out: In vitro Clint. The procedure:
(§5) For metabolic stability, microsomes from human, monkey, dog, rat and mouse were used. For stability, prodrugs (1 μM) were spiked in each microsomes matrix and incubated in an orbital shaker at 37° C. Aliquots of 50 μL were taken from the reaction solution at 0, 15, 30, 45 and 60 min. The reaction was stopped by the addition of 4 volumes of cold acetonitrile with IS (100 nM alprazolam, 200 nM labetalol, 200 nM caffeine and 2 μM ketoprofen). Samples were centrifuged at 3, 220 g for 40 minutes. Aliquot of 100 μL of the supernatant was mixed with 100 μL of ultra-pure H2O and then used for LC-MS/MS analysis.
(§6) For LC-MS/MS, prodrugs were analyzed on an API 4000 instrument from AB Inc (Canada) with an ESI interface coupled to Shimadzu LC system on an Waters XSelect HSS T3 C18, 2.5 m, 2.1×30 mm column.
(§7) For data analysis, peak areas were determined from extracted ion chromatograms. The slope value, k, was determined by linear regression of the natural logarithm of the remaining percentage of the parent drug vs. incubation time curve. The in vitro half-life (in vitro t1/2) was determined from the slope value: in vitro t1/2=−(0.693/k)
(§8) Conversion of the in vitro t1/2 (min) into the in vitro intrinsic clearance (in vitro CLint, in μL/min/mg protein) was done using the following equation (mean of duplicate determinations): […]

Series [3] is described as follows: Stability in liver microsomes, dog. In kind it is in vitro ADME. The note with it: 60 minutes, read-out: In vitro Clint. The procedure: as §5, §6, §7, §8
Series [4] can be described thus: Stability in liver microsomes, human. The class given is in vitro ADME. The note with it: 60 minutes, read-out: In vitro Clint. The procedure: as §5, §6, §7, §8
Series [5] is described as follows: Stability in liver microsomes, rat. The class given is in vitro ADME. The note with it: 60 minutes, read-out: In vitro Clint. The method, then:
as §5, §6, §7, §8
(In general: Liver microsomes are a subcellular fraction often used to study metabolism.)

Series [6] is described as follows: Plasma stability, monkey plasma. The note with it: 1 μM, 37° C., 4 hours. The method, then:
as §1, §2, §3

Series [7] can be described thus: Body weight of C57BL/6 mice bearing MC38 tumors (Example 11). In kind it is in vivo, Mus musculus. The note with it: C57BL/6, MC38, 2 μmol/kg S.C. QD; for BW Change (%): D6 to D20. The method, then:
The treatments were started when the mean tumor size reached 82-129 mm^3 (average tumor size 102 mm^3). Each group contained 6 tumor bearing mice. Group 1 was treated with Vehicle (10% DMSO+90% Saline), S.C., QD. Group 2 was given treatments with compound 2 at 2 μmol/kg, S.C., QD. Group 3 was given treatments with compound 81 at 2 μmol/kg, S.C., QD. Group 4 was given treatments with compound 443 at 2 μmol/kg, S.C., QD. Group 5 was given treatments with compound 459 at 2 μmol/kg, S.C., QD. Group 6 was given treatments with compound 3 at 2 μmol/kg, S.C., QD.
as §4

Series [8] in a line: Stability in liver microsomes, mouse. The class given is in vitro ADME. The note with it: 60 minutes, read-out: In vitro Clint. The procedure: as §5, §6, §7, §8
A short description of series [9]: Plasma stability, human plasma. The note with it: 1 μM, 37° C., 4 hours. The procedure:
as §1, §2, §3

Series [10] can be described thus: Plasma stability, dog plasma. The class given is in vitro ADME. The note with it: 1 μM, 37° C., 4 hours. The method, then:
For metabolic stability, plasma from dog, monkey, swine and human were used. For stability, prodrugs (1 μM) were spiked in respective solutions and incubated in an orbital shaker at 37° C. 50 μL aliquots of the mixture in duplicate were removed, and the reaction quenched by addition of four times the volume of ice cold acetonitrile spiked with the internal standard (Dexamethasone 100 ng/mL). The samples were vortexed for 30 s and centrifuged at 15000 g for 5 min. 100 μL of the supernatant was diluted with 100 μL of water and transferred to the 0.6 mL plastic tubes on 96-well plate. Prodrug disappearance was monitored over time using a liquid chromatography and tandem mass spectrometry (LC-MS/MS).
as §2, §3

As to `CO[C@@H](CCSC)C(=O)N[C@@H](CCC(=O)C=[N+]=[N-])C(=O)OC(C)C` [Compound 443, isopropyl (S)-6-diazo-2-((S)-2-methoxy-4-(methylthio)butanamido)-5-oxohexanoate], the “plasma stability (compound remaining)” value in [1] is reported as “substantially intact”. In the series on MC38 tumor cells, the “T/C (%)” value worked out at 21.5%, the “TGI (%)” value came out at 78.5%, the “TV (mm^3) (Mean ± SEM) D6” value was determined as 102 ± 6 mm^3 and the “TV (mm^3) (Mean ± SEM) D10” value turned out to be 152 ± 25 mm^3. Also, in the series with MC38 tumor cells, the “TV (mm^3) (Mean ± SEM) D13” value amounted to 267 ± 65 mm^3, the “TV (mm^3) (Mean ± SEM) D17” value was 384 ± 95 mm^3, the “TV (mm^3) (Mean ± SEM) D20” value was determined as 500 ± 119 mm^3 and the “TV (mm^3) at D21 (Mean ± SEM)” value was determined as 500 ± 119 mm^3. The microsomal CLint at 1 μM in series [2] amounted to 180 µL/min/mg. For the same compound, the microsomal CLint at 1 μM in series [3] came out at 81.9 µL/min/mg. Moreover, the microsomal CLint at 1 μM in series [4] was 73.5 µL/min/mg. Moreover, in series [5], the microsomal CLint at 1 μM turned out to be 239 µL/min/mg. Besides, the “plasma stability (compound remaining)” value in [6] is given as “substantially intact”. Besides, in series [7], the “BW(g) (Mean ± SEM) Beginning (D6)” value is recorded as 19.9 ± 0.6 g, the “BW Change (%)” value is listed as “+11.9%” and the “BW(g) (Mean ± SEM) End (D20)” value came out at 22.3 ± 0.5 g. In addition, in [8], the microsomal CLint at 1 μM stood at 408 µL/min/mg. Also, the “plasma stability (compound remaining)” value in series [9] is recorded as “substantially intact”. Moreover, in [10], the “plasma stability (compound remaining)” value is “substantially intact”.
As for `CO[C@@H](C)C(=O)N[C@@H](CCC(=O)C=[N+]=[N-])C(=O)SC(C)C` [Compound 459, S-isopropyl (S)-6-diazo-2-((S)-2-methoxypropanamido)-5-oxohexanethioate], in series [1], the “plasma stability (compound remaining)” value was “substantially intact”. Further, in the series on MC38 tumor cells, the “T/C (%)” value was determined as 11.8%, the “TGI (%)” value came out at 88.2%, the “TV (mm^3) (Mean ± SEM) D6” value was determined as 102 ± 5 mm^3 and the “TV (mm^3) (Mean ± SEM) D10” value worked out at 148 ± 22 mm^3. In the series with MC38 tumor cells, the “TV (mm^3) (Mean ± SEM) D13” value was determined as 183 ± 30 mm^3, the “TV (mm^3) (Mean ± SEM) D17” value is given as 281 ± 65 mm^3, the “TV (mm^3) (Mean ± SEM) D20” value was found to be 275 ± 59 mm^3 and the “TV (mm^3) at D21 (Mean ± SEM)” value worked out at 275 ± 59 mm^3. In addition, the microsomal CLint at 1 μM in [2] was found to be 130 µL/min/mg. For the same compound, the microsomal CLint at 1 μM in [3] was 9.57 µL/min/mg. The microsomal CLint at 1 μM in series [4] is 18.9 µL/min/mg. In addition, the microsomal CLint at 1 μM in series [5] amounted to 115 µL/min/mg. In addition, the “plasma stability (compound remaining)” value in series [6] was “substantially intact”. In series [7], the “BW(g) (Mean ± SEM) Beginning (D6)” value worked out at 19.9 ± 0.3 g, the “BW Change (%)” value is on record as “+6.3%” and the “BW(g) (Mean ± SEM) End (D20)” value was determined as 21.1 ± 0.5 g. The microsomal CLint at 1 μM in series [8] stood at 71.7 µL/min/mg. Also, the “plasma stability (compound remaining)” value in [9] is “substantially intact”. Also, the “plasma stability (compound remaining)” value in series [10] was “substantially intact”.
